The target of assay [1] is T1, Serine/threonine-protein kinase PLK3 (Homo sapiens, UniProt Q9H4B4). Kind of assay: Inhibition of recombinant Plk3 assessed as casein substrate phosphorylation.
Target sequence in this assay (Q9H4B4 whole entry): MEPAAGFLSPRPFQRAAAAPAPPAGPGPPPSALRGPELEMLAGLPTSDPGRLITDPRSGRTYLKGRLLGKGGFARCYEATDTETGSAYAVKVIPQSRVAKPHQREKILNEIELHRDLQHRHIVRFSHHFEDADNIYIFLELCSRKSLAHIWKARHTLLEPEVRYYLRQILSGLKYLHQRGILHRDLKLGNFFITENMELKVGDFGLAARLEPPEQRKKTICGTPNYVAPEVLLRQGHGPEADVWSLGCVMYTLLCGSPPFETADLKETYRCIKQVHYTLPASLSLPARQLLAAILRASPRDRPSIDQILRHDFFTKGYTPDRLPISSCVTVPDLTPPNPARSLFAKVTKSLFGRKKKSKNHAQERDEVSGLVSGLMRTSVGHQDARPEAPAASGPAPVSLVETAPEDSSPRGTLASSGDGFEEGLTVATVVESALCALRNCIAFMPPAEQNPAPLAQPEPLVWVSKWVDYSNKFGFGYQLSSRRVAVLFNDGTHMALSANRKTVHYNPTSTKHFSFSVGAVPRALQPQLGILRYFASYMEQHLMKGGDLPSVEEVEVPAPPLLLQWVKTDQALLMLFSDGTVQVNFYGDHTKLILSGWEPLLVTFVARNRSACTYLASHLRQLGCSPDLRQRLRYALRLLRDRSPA
Assay [2] deals with Serine/threonine-protein kinase PLK1 (Homo sapiens, UniProt P53350). Kind of assay: Inhibition of AX-7503 binding to recombinant Plk1 by Western blot. In general terms: Immunoblotting shows a protein as a band on a membrane.
The target in assay [3] is T1, Serine/threonine-protein kinase PLK3. Kind of assay: Inhibition of AX-7503 binding to recombinant Plk3 expressed in HeLa cells by Western blot. Type of assay: cell-based.
Target sequence in this assay (Q9H4B4 whole entry): as above
Assay [4] has the same target. Kind of assay: Inhibition of recombinant Plk3 expressed in human GM00637 cells at 1 uM. It is filed as cell-based.
Target sequence in this assay (Q9H4B4 whole entry, looked up): as the sequence (Q9H4B4 whole entry) above
Assay [5] has as its target Serine/threonine-protein kinase PLK2 (Homo sapiens) (UniProt Q9NYY3). Briefly: Inhibition of AX-7503 binding to recombinant Plk2 at 1 uM by Western blot.
Assay [6] addresses T1, Serine/threonine-protein kinase PLK3. Kind of assay: Inhibition of Plk3 in human A549 cells assessed as casein substrate phosphorylation by Western blot. It is filed as cell-based.
Target sequence in this assay (Q9H4B4 whole entry): as above
Assay [7] has the same target. Kind of assay: Inhibition of recombinant Plk3 expressed in human GM00637 cells at 1 uM assessed as decrease in p53 serine-20 phosphorylation. It is filed as cell-based.
Target sequence in this assay (Q9H4B4 whole entry, looked up): as the sequence (Q9H4B4 whole entry) above

The source made the active and inactive calls. No cut-off for these calls is given here.

The text below walks through data of ChEMBL document CHEMBL1156422 (J Biol Chem, 2007).

Serine/threonine-protein kinase PLK1, sequence (P53350 whole entry): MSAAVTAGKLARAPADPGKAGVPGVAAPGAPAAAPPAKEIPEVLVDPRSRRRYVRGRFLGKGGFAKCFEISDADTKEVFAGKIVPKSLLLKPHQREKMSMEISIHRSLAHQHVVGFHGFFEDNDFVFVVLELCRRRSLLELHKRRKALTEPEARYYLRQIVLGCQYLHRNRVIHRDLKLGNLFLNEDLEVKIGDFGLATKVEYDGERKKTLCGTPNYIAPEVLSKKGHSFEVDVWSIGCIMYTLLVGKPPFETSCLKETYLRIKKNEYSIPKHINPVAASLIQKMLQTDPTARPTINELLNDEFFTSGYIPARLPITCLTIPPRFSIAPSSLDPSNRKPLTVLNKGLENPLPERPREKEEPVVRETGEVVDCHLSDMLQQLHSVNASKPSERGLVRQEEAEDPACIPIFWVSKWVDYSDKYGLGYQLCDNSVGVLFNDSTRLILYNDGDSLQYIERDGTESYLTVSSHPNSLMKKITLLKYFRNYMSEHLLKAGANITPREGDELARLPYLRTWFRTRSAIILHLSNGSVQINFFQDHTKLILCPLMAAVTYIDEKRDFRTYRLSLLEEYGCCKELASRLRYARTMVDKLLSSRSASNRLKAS
Serine/threonine-protein kinase PLK2 (Homo sapiens), sequence (Q9NYY3 whole entry, looked up): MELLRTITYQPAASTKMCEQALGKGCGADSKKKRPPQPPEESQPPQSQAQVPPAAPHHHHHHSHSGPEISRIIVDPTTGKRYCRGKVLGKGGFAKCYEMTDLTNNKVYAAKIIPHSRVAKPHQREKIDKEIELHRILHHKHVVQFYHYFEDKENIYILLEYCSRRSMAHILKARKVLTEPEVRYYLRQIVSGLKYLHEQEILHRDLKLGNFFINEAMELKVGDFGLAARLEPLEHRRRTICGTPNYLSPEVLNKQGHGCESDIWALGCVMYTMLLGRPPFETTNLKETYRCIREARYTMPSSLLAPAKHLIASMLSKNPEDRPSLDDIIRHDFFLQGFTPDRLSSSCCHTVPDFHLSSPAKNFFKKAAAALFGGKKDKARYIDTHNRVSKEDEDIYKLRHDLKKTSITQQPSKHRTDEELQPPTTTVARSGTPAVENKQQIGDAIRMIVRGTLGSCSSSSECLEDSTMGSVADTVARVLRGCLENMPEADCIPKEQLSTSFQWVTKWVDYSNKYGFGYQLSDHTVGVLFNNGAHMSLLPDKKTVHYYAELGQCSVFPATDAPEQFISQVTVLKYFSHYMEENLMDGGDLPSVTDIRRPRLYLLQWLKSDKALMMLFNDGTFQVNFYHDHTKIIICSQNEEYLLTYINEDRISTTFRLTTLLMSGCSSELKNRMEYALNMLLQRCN

One may read the IC50 as the point on the concentration scale where inhibition reaches its midpoint. With `O=c1cc(N2CCOCC2)oc2c(-c3ccccc3)cccc12` [LY-294002], the IC50 in assay [1] stood at 88 µM; in assay [2], 2.1 µM; in assay [3], 3 µM.
What is called inhibition is the share of the control response that was lost under treatment. With `COC[C@H]1OC(=O)c2coc3c2[C@@]1(C)C1=C(C3=O)[C@@H]2CCC(=O)[C@@]2(C)C[C@H]1OC(C)=O` [WORTMANNIN], in assay [4], the inhibition came out at 75%. In addition, the outcome in assay [5] and in assay [7] was Active. In addition, the values for the IC50 in assay [6], in assay [1] and in assay [3] were 0.22 µM, 0.048 µM and 0.049 µM, respectively.
